The values below come from ChEMBL document CHEMBL2150883, “Development of indole compounds as small molecule fusion inhibitors targeting HIV-1 glycoprotein-41” (J Med Chem, 2011).

The test system of data set [1] is Human immunodeficiency virus 1. The experiment in a line: Antiviral activity against HIV1 3B assessed as inhibition of viral replication by CCR5/CXCR4-tropic MAGI assay in presence of 10% serum. The data set is classed as functional, organism-based. Conditions: Human immunodeficiency virus 1, 3B.
The test system of data set [2] is Human immunodeficiency virus 1. The data set can be described thus: Antiviral activity against HIV1 Ba-L assessed as inhibition of viral replication by CCR5/CXCR4-tropic MAGI assay in presence of 10% serum. Conditions: Human immunodeficiency virus 1, Ba-L. It counts as functional, organism-based.
Data set [3] in a line: Cytotoxicity against human MAGI-CCR5 cells assessed as cell viability by MTS assay in presence of 5% serum. It counts as cell-based. Background: Tetrazolium dyes change colour on reduction, which living cells bring about.
A short description of data set [4]: Cytotoxicity against human MAGI-CCR5 cells assessed as cell viability by MTS assay. It counts as cell-based.
For data set [5], the system named is Human immunodeficiency virus 1. The data set can be described thus: Antiviral activity against HIV1 Ba-L assessed as inhibition of viral replication by CCR5/CXCR4-tropic MAGI assay in presence of 2% serum. Particulars: Human immunodeficiency virus 1, Ba-L. The data set is classed as functional, organism-based.
Data set [6] can be described thus: Cytotoxicity against human MAGI-CCR5 cells assessed as cell viability by MTS assay in presence of 2% serum. The data set is classed as cell-based.
In data set [7] the test system is Human immunodeficiency virus 1. The experiment in a line: Antiviral activity against HIV1 Ba-L assessed as inhibition of viral replication by CCR5/CXCR4-tropic MAGI assay in presence of 5% serum. The data set is classed as functional, organism-based. Particulars: Human immunodeficiency virus 1, Ba-L.
The nature of data set [8]: Cytotoxicity against human MAGI-CCR5 cells assessed as cell viability by MTS assay in presence of 10% serum. It counts as cell-based.
The nature of data set [9]: Binding affinity to HIV1 HXB2 gp41 by fluorescence assay. More on the design: species or system Human immunodeficiency virus 1.
A short description of data set [10]: Inhibition of gp41 in HIV1 HXB2 assessed as cell-cell fusion inhibition after 6 hrs by luciferase reporter gene assay. Conditions: Human immunodeficiency virus 1, HXB2, 6 h. (A reporter such as luciferase makes a cellular process visible.)

Each structure is given as a SMILES string.

As usually defined, the EC50 is the concentration needed to bring the measured effect to its halfway point. As a reminder, the CC50 is the concentration at which the toxic effect on the cells reaches its halfway point. One may read the Ki as a dissociation constant, usually derived from enzyme kinetics or from competition with a known ligand. A lower Ki goes with higher affinity.

As for `COc1ccc(Cn2ccc3ccc(-c4ccc5ccn(Cc6cccc(C(=O)O)c6)c5c4)cc32)cc1`, the EC50 in [1] worked out at 2.8 µM; in data set [2], 2.38 µM; in [5], 0.92 µM; in data set [7], 2.01 µM. Moreover, the CC50 in data set [3] was over 100 µM; in [4] (magi-ccr5), 19 µM; in data set [6], 50.1 µM; in [8] it was over 100 µM.
On to `COc1ccc(C(=O)O)cc1Cc1ccc2cc[nH]c2c1`, for which the EC50 in [1], in data set [2], in data set [5] and in [7] was over 100 µM throughout. The CC50 in [3], in data set [4] (magi-ccr5), in [6] and in data set [8] was over 100 µM each time.
Compound `O=C(O)c1cccc(Cc2ccc3ccn(-c4cccc(C(=O)O)c4)c3c2)c1` had a Ki in data set [9] of 45 µM. Further, in [4] (MAGI-CCR5 cells), the CC50 was over 400 µM.
For `O=C(O)c1cccc(Cn2ccc3ccc(-c4ccc5ccn(Cc6ccc(F)cc6)c5c4)cc32)c1`, the EC50 in data set [1] turned out to be 5.2 µM; in data set [2], 4.49 µM; in [5], 1.56 µM; in data set [10], 0.54 µM; in data set [7], 3.3 µM. Also, the affinity in data set [9], expressed as Ki, was 1.1 µM. For the same compound, the CC50 in data set [3] is 98.5 µM; in data set [4] (magi-ccr5), 17 µM; in data set [6], 52.2 µM; in [8], over 100 µM.
As to `O=C(O)c1cccc(Cc2ccc3c(ccn3Cc3cccc(C(=O)O)c3)c2)c1`, the Ki in data set [9] stood at 35 µM. The CC50 in [4] (MAGI-CCR5 cells) was over 100 µM. For the same compound, the EC50 in data set [10] was over 100 µM.
Regarding `O=C(O)c1cccc(-c2ccc3cc[nH]c3c2)c1`, in data set [4] (MAGI-CCR5 cells), the CC50 is over 100 µM.
As to `O=C(O)c1ccc([N+](=O)[O-])c(Cc2ccc3cc[nH]c3c2)c1`, the 50% effective concentration (EC50) was over 100 µM in data set [1], over 100 µM in data set [2], 18.5 µM in [5] and 82.7 µM in data set [7]. The CC50 in data set [3], in data set [4] (magi-ccr5), in data set [6] and in [8] was over 100 µM each time.
In the case of `O=C(O)c1cccc(Cn2ccc3ccc(-c4ccc5cc(Cl)ccc5n4)cc32)c1`, the EC50 in data set [1] was over 100 µM; in data set [2] it was over 100 µM; in data set [5], 48 µM; in [7], 88.5 µM. The CC50 is over 100 µM in [3], 47 µM in data set [4] (magi-ccr5), over 100 µM in data set [6] and over 100 µM in data set [8].
On to `O=C(O)c1cccc(Cc2ccc3cc[nH]c3c2)c1`, for which the EC50 in [1] came to 100 µM; in data set [2], 44.7 µM; in data set [5] it was 15.5 µM; in data set [7], 34.8 µM. Moreover, the CC50 in [3], in data set [6] and in data set [8] was over 100 µM in each case.
`O=C(O)c1cccc(Cc2ccc3[nH]ccc3c2)c1`: the EC50 in data set [1] was over 100 µM; in data set [2] it was 63.5 µM; in data set [5] it was 42.4 µM; in [7] it was 52.4 µM. The half-maximal cytotoxic concentration (CC50) in data set [3] was over 100 µM; in data set [4] (MAGI-CCR5 cells), over 400 µM; in [6] it was over 100 µM; in data set [8], over 100 µM.
As for `O=C(O)c1cccc(COc2cccc(-c3ccc4ccn(Cc5cccc(C(=O)O)c5)c4c3)c2)c1`, the EC50 is over 100 µM in data set [1], over 100 µM in [2], 34.2 µM in [5] and 56.2 µM in data set [7]. In addition, the CC50 is over 100 µM in data set [3], over 500 µM in data set [4] (MAGI-CCR5 cells), over 100 µM in data set [6] and over 100 µM in data set [8].
Consider `O=C(O)c1cccc(Cc2ccc3ccn(Cn4ccc5ccc(Cc6cccc(C(=O)O)c6)cc54)c3c2)c1`, for which the EC50 is over 100 µM in data set [1], 92.1 µM in data set [2], 14.6 µM in data set [5] and 49.6 µM in [7]. The CC50 in data set [3], in data set [6] and in data set [8] was over 100 µM each time.
With `O=C(O)c1cccc(Cc2ccc3ccn(Cc4cccc(C(=O)O)c4)c3c2)c1`, the CC50 in data set [4] (MAGI-CCR5 cells) was over 200 µM.
As for `O=Cc1c[nH]c2cc(Cc3cccc(C(=O)O)c3)ccc12`, the CC50 in data set [4] (MAGI-CCR5 cells) is over 100 µM.
As for `COc1cccc(-n2ccc3ccc(Cc4cccc(C(=O)O)c4)cc32)c1`, the EC50 in data set [1] came to 61.5 µM; in [2], 67.7 µM; in data set [5] it was 15.8 µM; in [7], 34 µM. Also, the CC50 in data set [3], in [6] and in data set [8] was over 100 µM each time.
Turning to `COc1cc(Cc2ccc3cc[nH]c3c2)cc(C(=O)O)c1`, the EC50 was over 100 µM in data set [1], over 100 µM in data set [2], 8.65 µM in [5] and over 100 µM in data set [7]. In addition, the CC50 in [3], in [4] (magi-ccr5), in data set [6] and in data set [8] was over 100 µM in each case.
`O=C(O)c1cccc(Cn2ccc3ccc(-c4cccc(O)c4)cc32)c1`: the EC50 is over 100 µM in [1], 82.7 µM in data set [2], 27.6 µM in data set [5] and 58.5 µM in data set [7]. Besides, the CC50 in data set [3], in data set [4] (magi-ccr5), in [6] and in data set [8] was over 100 µM throughout.
Regarding `O=C(O)c1cccc(Cn2ccc3cc(-c4ccc5cc(Cl)ccc5n4)ccc32)c1`, the EC50 is 15.5 µM in data set [1], 13.1 µM in data set [2], 6.41 µM in [5] and 10.1 µM in data set [7]. Further, the CC50 in data set [3] was over 100 µM; in data set [4] (magi-ccr5), over 100 µM; in data set [6], 50.1 µM; in data set [8], over 100 µM.
As for `COc1ccc(Cn2ccc3ccc(Cc4cccc(C(=O)O)c4)cc32)cc1`, the EC50 was over 100 µM in [1], over 100 µM in [2], 55.8 µM in [5] and 91.2 µM in data set [7]. Moreover, the CC50 was over 100 µM in [3], 100 µM in [4] (magi-ccr5), 92.7 µM in [6] and over 100 µM in [8].
For `COc1ccc(COc2cccc(-c3ccc4ccn(Cc5cccc(C(=O)OCc6cccc(C(=O)O)c6)c5)c4c3)c2)cc1`, the EC50 in data set [1] is 34.3 µM; in [2], 22.6 µM; in [5] it was 13.8 µM; in data set [7], 18.7 µM. The CC50 was over 100 µM in data set [3], over 100 µM in data set [4] (magi-ccr5), 58.9 µM in data set [6] and over 100 µM in [8].
As to `COc1cccc(-c2ccc3ccn(Cc4cccc(C(=O)O)c4)c3c2)c1`, the EC50 in data set [1] was found to be 57.4 µM; in data set [2], 47.4 µM; in data set [5] it was 18 µM; in data set [7] it was 36.6 µM. Moreover, the CC50 in data set [3] was over 100 µM; in [4] (MAGI-CCR5 cells), over 500 µM; in data set [6], 67.5 µM; in data set [8], over 100 µM.
Take `O=C(O)c1ccc(O)c(Cc2ccc3cc[nH]c3c2)c1`: the EC50 in data set [1] is over 100 µM; in data set [2], over 100 µM; in data set [5], 42.7 µM; in data set [7], 89.3 µM. Moreover, the CC50 in [3] is over 100 µM; in data set [4] (MAGI-CCR5 cells), over 500 µM; in [6] it was over 100 µM; in data set [8], over 100 µM.
Turning to `O=C(O)c1cc(O)cc(Cc2ccc3cc[nH]c3c2)c1`, the EC50 in data set [1], in data set [2], in [5] and in data set [7] was over 100 µM in each case. The half-maximal cytotoxic concentration (CC50) in data set [3] is over 100 µM; in [4] (MAGI-CCR5 cells) it was over 500 µM; in [6], over 100 µM; in data set [8], over 100 µM.
For `O=C(O)C(=O)c1c[nH]c2cc(Cc3cccc(C(=O)O)c3)ccc12`, the CC50 in data set [4] (MAGI-CCR5 cells) was over 100 µM.
